Data as given in US9198433B2, “Substituted benzene fungicides” (E I DU PONT DE NEMOURS AND COMPANY, priority 2007, dated 2015).
Marks after values point to notes of the source that are not given here.

What was measured:
Type in all cases: in vivo
[1] = system: Puccinia recondita f. sp. tritici; assay: Test B: wheat leaf rust, preventive spray on wheat seedlings, disease rating
Summary of the method: (§1)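 Preventive foliar spray to run-off on wheat seedlings, followed by disease rating. Test rate 200 ppm (equal to 500 g/ha), with some entries at 40 ppm or 50 ppm. Suspensions made in acetone/purified water 50/50 containing 250 ppm Trem 014.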

Botrytis cinerea = assay: Test F: tomato Botrytis, preventive spray on tomato seedlings, disease rating; conditions: 200 ppm
Summary of the method: (§2)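 Disease ratings follow a preventive run-off spray of tomato seedlings. Compounds were first dissolved in acetone (3% of volume), then suspended in 50/50 acetone/water containing 250 ppm Trem 014. Test level 200 ppm (equivalent to 500 g/ha) except where marked * for 40 ppm or ** for 50 ppm.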

Alternaria solani = assay: Test H: tomato early blight, preventive spray on tomato seedlings, disease rating; conditions: 200 ppm
Summary of the method: as §2

Septoria nodorum = assay: Test C: wheat glume blotch, preventive spray on wheat seedlings, disease rating
Summary of the method: as §1

Pythium aphanidermatum = assay: Test L: bluegrass pythium blight, preventive spray on bluegrass seedlings, disease rating
Description: The test compounds were first dissolved in acetone in an amount equal to 3% of the final volume and then suspended at the desired concentration (in ppm) in acetone and purified water (50/50 mix) containing 250 ppm of the surfactant Trem® 014 (polyhydric alcohol esters). The resulting test suspensions were then used in Tests A-L. Spraying a 200 ppm test suspension to the point of run-off on the test plants was the equivalent of an application rate of 500 g/ha. The test suspension was sprayed to the point of run-off on bluegrass seedlings. […] A dash (-) indicates no test results. All results are for 200 ppm except where followed by an “*”, which indicates 40 ppm or “**”, which indicates 50 ppm.

Plasmopara viticola = assay: Test K: grape downy mildew, spray on grape seedlings after inoculation, disease rating
Description: The test compounds were first dissolved in acetone in an amount equal to 3% of the final volume and then suspended at the desired concentration (in ppm) in acetone and purified water (50/50 mix) containing 250 ppm of the surfactant Trem® 014 (polyhydric alcohol esters). The resulting test suspensions were then used in Tests A-L. Spraying a 200 ppm test suspension to the point of run-off on the test plants was the equivalent of an application rate of 500 g/ha. Grape seedlings were inoculated with a spore suspension of Plasmopara viticola (the causal agent of grape downy mildew) and incubated in a saturated atmosphere at 20° C. for 24 h. After a short drying period, the test suspension was sprayed to the point of run-off on the grape seedlings and then moved to a growth chamber at 20° C. for 6 days, after which the test units were placed back into a saturated atmosphere at 20° C. for 24 h. Upon removal, disease ratings were made. […] A dash (-) indicates no test results. All results are for 200 ppm except where followed by an “*”, which indicates 40 ppm or “**”, which indicates 50 ppm.

Fusarium graminearum = conditions: 200 ppm; wheat head scab
Septoria tritici = assay: Test D: wheat leaf blotch, preventive spray on wheat seedlings, disease rating
Summary of the method: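 Preventive test: one day after run-off spraying (200 ppm, equal to 500 g/ha, unless marked 40 or 50 ppm; acetone/water plus 250 ppm Trem 014), seedlings received S. tritici spore inoculum. Disease scored after 48 h at 24 °C in saturated air and 19 further days at 20 °C.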

Phytophthora infestans = conditions: 200 ppm; tomato late blight
Rhizoctonia oryzae = assay: Test I: turf brown patch, preventive spray on creeping bent grass seedlings, disease rating; conditions: 200 ppm
Description: The test compounds were first dissolved in acetone in an amount equal to 3% of the final volume and then suspended at the desired concentration (in ppm) in acetone and purified water (50/50 mix) containing 250 ppm of the surfactant Trem® 014 (polyhydric alcohol esters). The resulting test suspensions were then used in Tests A-L. Spraying a 200 ppm test suspension to the point of run-off on the test plants was the equivalent of an application rate of 500 g/ha. The test suspension was sprayed to the point of run-off on creeping bent grass seedlings. […] A dash (-) indicates no test results. All results are for 200 ppm except where followed by an “*”, which indicates 40 ppm or “**”, which indicates 50 ppm.

[2] = system: Erysiphe graminis f. sp. tritici; assay: Test A: wheat powdery mildew, preventive spray on wheat seedlings, disease rating
Summary of the method: as §1

SMILES: CC[Si](C)(C)Cn1ccc(-c2ccc(Cl)c(CNC(=O)OC)c2)n1 [Cmpd 27]
- Percentage Disease Control, Test B ([1]; 40 ppm (*)): 99* %
- Percentage Disease Control, Test F (Botrytis cinerea): 0%
- Percentage Disease Control, Test H (Alternaria solani): 0%
- Percentage Disease Control, Test C (Septoria nodorum; 40 ppm (*)): 94* %
- Percentage Disease Control, Test L (Pythium aphanidermatum; 200 ppm): 0%
- Percentage Disease Control, Test K (Plasmopara viticola; 200 ppm): 76%
- Percentage Disease Control, Test E (Fusarium graminearum): 93%
- Percentage Disease Control, Test D (Septoria tritici; 40 ppm (*)): 96* %
- Percentage Disease Control, Test J (Phytophthora infestans): 0%
- Percentage Disease Control, Test I (Rhizoctonia oryzae): 0%
- Percentage Disease Control, Test A ([2]; 200 ppm): 96%

SMILES: COC(=O)NCc1cc(-c2ccn(Cc3cnc(Cl)s3)n2)ccc1Cl [Cmpd 25]
- Percentage Disease Control, Test B ([1]; 200 ppm): 96%
- Percentage Disease Control, Test F (Botrytis cinerea): 37%
- Percentage Disease Control, Test H (Alternaria solani): 76%
- Percentage Disease Control, Test C (Septoria nodorum; 200 ppm): 78%
- Percentage Disease Control, Test L (Pythium aphanidermatum; 200 ppm): 0%
- Percentage Disease Control, Test K (Plasmopara viticola; 200 ppm): 63%
- Percentage Disease Control, Test E (Fusarium graminearum): 77%
- Percentage Disease Control, Test D (Septoria tritici; 200 ppm): 96%
- Percentage Disease Control, Test J (Phytophthora infestans): 0%
- Percentage Disease Control, Test I (Rhizoctonia oryzae): 0%
- Percentage Disease Control, Test A ([2]; 200 ppm): 91%

SMILES: COC(=O)NCc1cc(C(C)=NOCC[Si](C)(C)C)ccc1Cl [Compound 1, methyl N-[[2-chloro-5-[1-[[2-(trimethylsilyl)ethoxy]imino]ethyl]phenyl]-methyl]carbamate]
- Percentage Disease Control, Test B ([1]; 200 ppm): 100%
- Percentage Disease Control, Test F (Botrytis cinerea): 0%
- Percentage Disease Control, Test H (Alternaria solani): 0%
- Percentage Disease Control, Test C (Septoria nodorum; 200 ppm): 100%
- Percentage Disease Control, Test L (Pythium aphanidermatum; 200 ppm): 0%
- Percentage Disease Control, Test K (Plasmopara viticola; 200 ppm): 66%
- Percentage Disease Control, Test E (Fusarium graminearum): 100%
- Percentage Disease Control, Test D (Septoria tritici; 40 ppm (*)): 100* %
- Percentage Disease Control, Test J (Phytophthora infestans): 0%
- Percentage Disease Control, Test I (Rhizoctonia oryzae): 0%
- Percentage Disease Control, Test A ([2]; 200 ppm): 100%

SMILES: COC(=O)NCc1cc(-c2ccn(CCC[Si](C)(C)C)n2)ccc1Cl [Cmpd 23]
- Percentage Disease Control, Test B ([1]; 40 ppm (*)): 100* %
- Percentage Disease Control, Test F (Botrytis cinerea): 0%
- Percentage Disease Control, Test H (Alternaria solani): 0%
- Percentage Disease Control, Test C (Septoria nodorum; 40 ppm (*)): 100* %
- Percentage Disease Control, Test L (Pythium aphanidermatum; 40 ppm (*)): 93* %
- Percentage Disease Control, Test K (Plasmopara viticola; 40 ppm (*)): 99* %
- Percentage Disease Control, Test E (Fusarium graminearum): 99%
- Percentage Disease Control, Test D (Septoria tritici; 40 ppm (*)): 98* %
- Percentage Disease Control, Test J (Phytophthora infestans): 91%
- Percentage Disease Control, Test I (Rhizoctonia oryzae): 0%
- Percentage Disease Control, Test A ([2]; 40 ppm (*)): 99* %
